# Tested on: PC12 cells
# Experiment: PC12 ischemic model (oxygen and glucose deprivation), cell death by LDH measurement
# Assay type: cell-based
# Conditions: for protection percentile: protection from cell death, FIG. 6B: identical for both compounds
# Method: PC12 cells were grown in 25 cm^2 flasks in Dulbecco's modified Eagles Medium (DMEM), supplemented with 7% fetal bovine serum (FBS), 7% horse serum, […] penicillin and 100 μg/ml streptomycin. Cells were grown in humidified incubator 5% CO2, 95% air at 37° C. The medium was replaced every 2 days, and upon 70% confluence, the cells were counted and seeded for the ischemia experiments.
# Approximately 1×10^6 PC12 cells/well were cultured and exposed to ischemia (oxygen and glucose deprivation=OGD) for 4.5 hr. Prior to the exposure, the growth medium was replaced with glucose-free DMEM (1 ml/well). Ischemia was performed in a closed chamber by replacement of air with 95% nitrogen/5% CO2.
# Ischemic stress injury was characterized by lactate dehydrogenase (LDH) released from cells. After 4.5 hr of ischemia, a 50 μl sample of supernatant was taken from each well for LDH measurement. At the end of the ischemic insult (after 4.5 hr), glucose (at final concentration of 4.5 g/L by adding 10 μl from stock solution of 450 mg/ml per well (1 ml)) was added to the plates which underwent ischemia. The plates were then transferred to a humidified incubator and exposed to 95% air/5% CO2 at 37° C. for additional 18 hr of reoxygenation. DMEM supernatant samples (25 μl/well) were collected from each well for LDH measurements. The samples were centrifuged at 3500 rpm for 5 min, and 5 μl aliquots of supernatant was taken for LDH measurement.
# For every experiment, a duplicate plate was prepared as a control study under normoxia. Cells were kept in a humidified incubator (5% CO2 and 95% air at 37° C.) in cell culture complete medium at a volume of 1 ml for 18 hr, and the same compounds were added with the same concentrations. Supernatant was collected for LDH measurement as indicated in the LDH activity measurement section below. Afterwards (at the end of the reoxygenation phase), the plates were frozen (at −70° C. for 30 min) and thawed once. 25 μl/well sample was collected and the samples were centrifuged at 3500 rpm for 5 min and then taken for LDH measurement (total).
# LDH activity was determined using LDH-L kit (Pointe Scientific Inc., Michigan, USA) in the PC12 cell medium. Medium samples (5 μl) were collected at the end of the ischemic insult (after 4.5 hr) and after the reoxygenation period. In parallel, samples from the plates exposed to normoxia were collected. LDH enzymatic activity was measured in a spectrophotometer at a wavelength of 340 nm at 37° C. Data analysis was performed as follows: [OD (cycle 3)−OD (cycle 1)experiment]−[OD(3)−OD(1) control])/[OD(3)−OD(1) total]×100, and presented as percentage of total cell death.
# One day before the experiment, 12-well plates were coated with 200 μg/ml type I rat tail collagen (BD Biosciences, Bedford, Mass.) and were further sterilized under UV. 1×10^6 PC12 undifferentiated cells/well were seeded on the plates and allowed to adhere overnight under regular conditions (DMEM medium high glucose 4.5 mg/ml, 5% CO2 and 95% air at 37° C.). Each experiment included 4 plates, two for normoxia and two for ischemia which underwent the same following treatment for all 4 plates.
# A half hour before the onset of the ischemic insult, the antioxidant Tempol (4-hydroxy-2,2,6,6-tetramethylpiperidine-1-oxyl) (Sigma, St. Louis, Mo.) at a concentration of 0.5 mM (10 μl/well taken from a 8.6 mg/ml stock solution) or TPEN at a concentration of 3 μM and 10 μM were added to the plates. Before the experiments, the medium was replaced with DMEM glucose free medium at 1 ml volume/well. TPEN or 10 μl Tempol were again added to the appropriate wells and was maintained throughout all experiments.
# Thereafter, the plates were introduced into a device inducing ischemia atmosphere with 95% nitrogen and 5% CO2 for 4.5 hr. Oxygen level was monitored online by a digital oxygen monitor showing up to 1%. At the end of OGD, 25 μl from each well was collected into 0.5 ml tubes for the LDH assay. […]
smiles,measurement,setting,value
Cc1ccc(CN(CCN(Cc2ccc(C)cn2)Cc2ccc(C)cn2)Cc2ccc(C)cn2)nc1 [Compound #6],"effectiveness relative to TPEN on PC12 cell death, FIG. 5",1 μM vs 1 μM TPEN,2 fold
same,"protection of PC12 cells against ischemia insult-induced cell death vs TPEN at same concentration, FIG. 4",1 μM vs 1 μM TPEN,significantly more potent then TPEN
same,"protection of PC12 cells against ischemia insult-induced cell death vs 3 μM TPEN, FIG. 4",1 μM vs 3 μM TPEN,more effective than 3 μM TPEN
same,"effectiveness relative to the un-protected control group of cells, FIG. 5",3 μM,4 fold
same,"effectiveness relative to TPEN on PC12 cell death, FIG. 5",3 μM vs TPEN at the same concentration,3 fold
same,"protective effect on PC12 cell death, Compound #6 vs. Compound #4, FIG. 3","at similar concentrations (300 nM, 1 μM, 3 μM)",more effective than Compound #4
same,"protection percentile: protection from cell death, FIG. 6B",first of two selected concentrations (not given),29%
same,"protection percentile: protection from cell death, FIG. 6B",second of two selected concentrations (not given),63%
same,"dose response function, attenuating cell death following ischemia-reperfusion, vs TPEN, FIG. 6A",selected concentrations,superior to the latter

# From patent publication US20140228407A1, “TETRA-PYRIDINE COMPOUNDS AND COMPOSITION FOR PROTECTING CELLS, TISSUES AND ORGANS AGAINST ISCHEMIA-REPERFUSION INJURY” (YISSUM RESEARCH DEVELOPMENT COMPANY OF THE HEBREW …, priority 2011, published 2014)
